In publication PMC10112521, “High-throughput AR dimerization assay identifies androgen disrupting chemicals and metabolites” (Frontiers in Toxicology, 2023):
Where two headings read alike, the source gives them in different places.

Columns and labels:
AR2 cells (HepG2-AR2) = test: Alamar Blue (resazurin) post hoc cell viability / cytotoxicity assay in AR2 cells; conditions: spid Viability, sheet antagonist_fits; for hill_tp (Hill model top): 0 where win_model is Constant
Description: For antagonist mode and cytotoxicity data, well-level normalized response (resp) was calculated as: resp=100 * RLU−bval/pval−bval where pval is the median RLU value of the MEC positive control wells (minimum four wells).

AR = system: AR; parameters: method as in Kleinstreuer et al., 2017; conditions: 2017, cited from earlier work; for Antagonist reference: AR antagonist reference class ref Kleinstreuer et al.; for Agonist reference: AR agonist reference class ref Kleinstreuer et al.
[1] = system: full-length human AR and the receptor interacting domain (RID) of SRC1; parameters: method as in U.S. EPA, 2002b; conditions: cited from earlier work
human AR [2] = target: T1, human AR (Homo sapiens, UniProt P10275); test: AR2 assay, agonist mode: ligand-dependent AR homodimerization (NanoBiT luciferase complementation) in stable HepG2-AR2 cells; type: cell-based;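 for hill tp: Log2 fold change of luminescence over DMSO vehicle wells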;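 for max med: Log2 fold change of luminescence over DMSO vehicle wells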
T1 sequence (P10275 1-920) 1: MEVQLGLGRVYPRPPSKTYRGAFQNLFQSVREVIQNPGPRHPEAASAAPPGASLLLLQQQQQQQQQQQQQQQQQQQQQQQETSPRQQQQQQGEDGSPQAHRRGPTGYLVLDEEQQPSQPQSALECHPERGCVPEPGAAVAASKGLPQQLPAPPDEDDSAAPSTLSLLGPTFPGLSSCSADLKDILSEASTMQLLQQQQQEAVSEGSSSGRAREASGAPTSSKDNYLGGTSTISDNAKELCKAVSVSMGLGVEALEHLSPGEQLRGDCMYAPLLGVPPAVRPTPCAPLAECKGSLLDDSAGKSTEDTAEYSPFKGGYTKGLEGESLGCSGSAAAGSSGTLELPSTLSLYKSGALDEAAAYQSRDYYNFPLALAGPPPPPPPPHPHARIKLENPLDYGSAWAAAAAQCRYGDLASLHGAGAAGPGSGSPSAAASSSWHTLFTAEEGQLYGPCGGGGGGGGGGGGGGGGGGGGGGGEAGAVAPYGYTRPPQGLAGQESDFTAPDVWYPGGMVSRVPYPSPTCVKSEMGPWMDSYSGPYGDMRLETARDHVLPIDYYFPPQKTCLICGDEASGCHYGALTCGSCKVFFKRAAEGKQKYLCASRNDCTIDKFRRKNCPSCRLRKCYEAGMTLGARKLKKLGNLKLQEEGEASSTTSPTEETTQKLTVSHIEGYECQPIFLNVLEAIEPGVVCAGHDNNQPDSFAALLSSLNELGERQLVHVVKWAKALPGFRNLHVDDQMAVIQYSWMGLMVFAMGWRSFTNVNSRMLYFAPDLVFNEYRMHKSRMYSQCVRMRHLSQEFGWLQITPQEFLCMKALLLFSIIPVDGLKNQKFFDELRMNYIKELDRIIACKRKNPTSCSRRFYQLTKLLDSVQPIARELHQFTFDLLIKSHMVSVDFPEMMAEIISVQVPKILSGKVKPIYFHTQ
T1 sequence (P10275 1-920) 2: T1 sequence (P10275 1-920) 1

human AR [3] = target: T1, human AR; test: cell-based; parameters: species or system AR2 cells (HepG2-AR2); NanoLuc complementation AR homodimerization, antagonist mode, loss of agonist-induced luminescence, AC50 by Hill fit; conditions: hill_ga
human AR [4] = target: T1, human AR; test: AR2 assay, antagonist mode: disruption of R1881 (10 nM)-induced AR homodimerization in HepG2-AR2 cells; type: cell-based
[5] = sheet agonist_fits, Hill model top (efficacy), 0 given where win_model is Constant
[6] = sheet agonist_fits, maximum median response
[7] = sheet agonist_fits, winning concentration-response model (Constant, Hill, Gain-Loss)
[8] = spid AR_antagonist, sheet antagonist_fits
[9] = spid AR_antagonist, sheet antagonist_fits, 0 where win_model is Constant

CNC(=O)ON=C(C)SC [Methomyl]
max_med (maximum median response) (AR2 cells (HepG2-AR2)): 19.3855 | hill_tp (Hill model top) (AR2 cells (HepG2-AR2)): 17.5917 | Antagonist reference (AR): Inactive

CC/C(=C(\c1ccccc1)c1ccc(OCCN(C)C)cc1)c1ccccc1 [Tamoxifen]
max_med (maximum median response) (AR2 cells (HepG2-AR2)): 41.7162 | hill_tp (Hill model top) (AR2 cells (HepG2-AR2)): 97.2082 | Agonist reference (AR): Inactive

C[C@]12CCC(=O)C=C1CC[C@@H]1[C@@H]2CC[C@]2(C)C(=O)CC[C@@H]12 [4-Androstene-3,17-dione]
OT 8 hr ([1]; activity call, 8 h, single protocol detects agonists and antagonists, invitroDBv3.4 ref U.S. EPA, 2002b): 1 | OT 16 hr ([1]; activity call, 16 h, single protocol detects agonists and antagonists, invitroDBv3.4 ref U.S. EPA, 2002b): 1 | max_med (maximum median response) (AR2 cells (HepG2-AR2)): 19.1138 | hill_tp (Hill model top) (AR2 cells (HepG2-AR2)): 19.333 | Agonist reference (AR): Moderate | Antagonist reference (AR): Inactive | Agonist reference (AR; Supplementary Table S1): Moderate

COP(=S)(OC)Oc1ccc([N+](=O)[O-])c(C)c1 [Fenitrothion]
max_med (maximum median response) (AR2 cells (HepG2-AR2)): 18.684 | hill_tp (Hill model top) (AR2 cells (HepG2-AR2)): 19.2014 | Antagonist reference (AR): Strong | Antagonist reference (AR; Supplementary Table S1): Strong

CNC(=O)Oc1cccc2c1OC(C)(C)C2 [Carbofuran]
max_med (maximum median response) (AR2 cells (HepG2-AR2)): 23.3178 | hill_tp (Hill model top) (AR2 cells (HepG2-AR2)): 15.7111 | hill_tp (human AR [2]; [5]): 0 | max_med (human AR [2]; [6]): 0.1027 | win_model (human AR [2]; [7]): Constant | AC50 (human AR [3]): 44.2 µM | max_med (maximum median response) (human AR [4]; [8]): 28.4656 | win_model (winning concentration-response model) (human AR [4]; [8]): Hill | hill_gw (Hill model slope) (human AR [4]; [9]): 1.516 | hill_tp (Hill model top) (human AR [4]; [9]): 33.2623

C#C[C@]1(O)CC[C@H]2[C@@H]3CCC4=CC(=O)CC[C@@H]4[C@H]3CC[C@@]21CC [Levonorgestrel]
max_med (maximum median response) (AR2 cells (HepG2-AR2)): 19.7477 | hill_tp (Hill model top) (AR2 cells (HepG2-AR2)): 15.1748 | Agonist reference (AR): Strong | Agonist reference (AR; Supplementary Table S1): Strong

CC(=O)S[C@@H]1CC2=CC(=O)CC[C@]2(C)[C@H]2CC[C@@]3(C)[C@@H](CC[C@@]34CCC(=O)O4)[C@H]12 [Spironolactone]
max_med (maximum median response) (AR2 cells (HepG2-AR2)): 26.4305 | Antagonist reference (AR): Strong | Antagonist reference (AR; Supplementary Table S1): Strong

CC1(C)NC(=O)N(c2ccc([N+](=O)[O-])c(C(F)(F)F)c2)C1=O [Nilutamide]
max_med (maximum median response) (AR2 cells (HepG2-AR2)): 8.678 | hill_tp (Hill model top) (AR2 cells (HepG2-AR2)): 5.9263 | Agonist reference (AR; Supplementary Table S1): Inactive | Antagonist reference (AR; Supplementary Table S1): Moderate

C[C@]12C=CC3=C4CCC(=O)C=C4CC[C@H]3[C@@H]1CC[C@@H]2O [17beta-Trenbolone]
OT 8 hr [1]: 1 | OT 16 hr [1]: 1 | max_med (maximum median response) (AR2 cells (HepG2-AR2)): 21.7453 | hill_tp (Hill model top) (AR2 cells (HepG2-AR2)): 17.3642 | AR2 agonist (human AR [2]): 1 | activity call in agonist mode (human AR [2]): tested active | hill_gw (human AR [2]): 0.7579 | hill_tp (human AR [2]): 6.165 | max_med (human AR [2]): 6.198 | win_model (human AR [2]): Hill | Agonist reference (AR): Strong | Agonist reference (AR; Supplementary Table S1): Strong | hill_gw (Hill model slope) (human AR [4]): 6.214 | hill_tp (Hill model top) (human AR [4]): 20.2687 | max_med (maximum median response) (human AR [4]): 20.7317 | win_model (winning concentration-response model) (human AR [4]): Gain-Loss

O=c1c(-c2ccc(O)cc2)coc2cc(O)cc(O)c12 [Genistein]
max_med (maximum median response) (AR2 cells (HepG2-AR2)): 23.3224 | hill_tp (Hill model top) (AR2 cells (HepG2-AR2)): 24.3043 | hill_tp (human AR [2]; [5]): 0 | max_med (human AR [2]; [6]): 0.108 | win_model (human AR [2]; [7]): Constant | AC50 (human AR [3]; spid=Bgal, antagonist mode, 10 nM agonist stimulus, 18 h, no CYP expressed): 9.34 µM | AC50 (human AR [3]; spid=No_RNA, antagonist mode, 10 nM agonist stimulus, 18 h, no CYP expressed): 9.32 µM | hill_tp (Hill model top) (human AR [4]): 100.659 | max_med (maximum median response) (human AR [4]): 101.398 | win_model (winning concentration-response model) (human AR [4]; [8]): Hill | hill_gw (Hill model slope) (human AR [4]; [9]): 2.066
